# Laboratory results: US6737383B1, “Herbicidal oxadiazolidines” (priority 1999, dated 2004)
# How the values were obtained:
# [1] = test system: blackgrass; experiment: Test B pre/postemergence blackgrass; assay type: in vivo, Alopecurus myosuroides
# Procedure, shortened: (§1)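 Response is a visual 0-to-10 score relative to untreated plants, where 0 means no effect and 10 means complete control, taken twelve to sixteen days after application. Treatments went onto soil at planting and onto foliage of 1- to 4-leaf plants, using a surfactant-containing non-phytotoxic solvent.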
# [2] = test system: giant foxtail; experiment: Test B pre/postemergence giant foxtail; assay type: in vivo, Setaria faberii
# Procedure, shortened: as §1
# [3] = test system: purple nutsedge; experiment: Test B pre/postemergence purple nutsedge; assay type: in vivo, Cyperus rotundus
# Procedure, shortened: as §1
# [4] = test system: wild oat; experiment: Test B pre/postemergence wild oat; assay type: in vivo, Avena fatua
# Procedure, shortened: as §1
# [5] = test system: crabgrass; experiment: Test B pre/postemergence crabgrass; assay type: in vivo, Digitaria sanguinalis
# Procedure, shortened: as §1
# [6] = test system: velvetleaf; experiment: Test B pre/postemergence velvetleaf; assay type: in vivo, Abutilon theophrasti
# Procedure, shortened: as §1
# [7] = test system: sugar beet; experiment: Test B pre/postemergence sugar beet; assay type: in vivo, Beta vulgaris
# Procedure, shortened: as §1
# [8] = test system: surinam grass; experiment: Test B pre/postemergence surinam grass; assay type: in vivo, Brachiaria decumbens
# Procedure, shortened: as §1
# [9] = test system: wheat; experiment: Test B pre/postemergence wheat; assay type: in vivo, Triticum aestivum
# Procedure, shortened: as §1
# [10] = test system: rape; experiment: Test B pre/postemergence rape; assay type: in vivo, Brassica napus
# Procedure, shortened: as §1
# [11] = test system: duck salad; experiment: Test B flood test duck salad; assay type: in vivo, Heteranthera limosa
# Procedure, shortened: (§2)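 Flood test on plants grown to the 2-leaf stage; treated plants kept in greenhouse twelve to sixteen days, then visually rated against controls on a 0 (no effect) to 10 (complete control) scale.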
# [12] = test system: bamyardgrass; experiment: Test B flood test barnyardgrass; assay type: in vivo, Echinochloa crus-galli
# Procedure, shortened: as §2
# [13] = test system: smallflower flatsedge; experiment: Test B flood test smallflower flatsedge; assay type: in vivo, Cyperus difformis
# Procedure, shortened: as §2
# [14] = test system: corn; experiment: Test B pre/postemergence corn; assay type: in vivo, Zea mays
# Procedure, shortened: as §1
# [15] = test system: soybean; experiment: Test B pre/postemergence soybean; assay type: in vivo, Glycine max
# Procedure, shortened: as §1
# [16] = test system: pigweed; experiment: Test B pre/postemergence pigweed; assay type: in vivo, Amaranthus retroflexus
# Procedure, shortened: as §1
# [17] = test system: morningglory; experiment: Test B pre/postemergence morningglory; assay type: in vivo, Ipomoea hederacea
# Procedure, shortened: as §1
# [18] = test system: cocklebur; experiment: Test B pre/postemergence cocklebur; assay type: in vivo, Xanthium strumarium
# Procedure, shortened: as §1
# [19] = test system: rice; experiment: Test B flood test rice; assay type: in vivo, Oryza sativa
# Procedure, shortened: as §2
# [20] = test system: bedstraw; experiment: Test B pre/postemergence bedstraw; assay type: in vivo, Galium aparine; details: Preemergence
# Procedure, shortened: as §1
# [21] = Postemergence, Rate 62 g/ha, scale 0 to 10, 0 is no effect, 10 is complete control
# [22] = Postemergence, Rate 125 g/ha, scale of 0 to 10 where 0 is no effect and 10 is complete control
# [23] = Postemergence, Rate 250 g/ha, scale of 0 to 10, 0 is no effect, 10 is complete control
# [24] = Postemergence, Rate 500 g/ha, scale of 0 to 10 where 0 is no effect and 10 is complete control
# [25] = Preemergence, Rate 62 g/ha, scale 0 to 10 (0 no effect, 10 complete control)
# [26] = Preemergence, Rate 125 g/ha, scale of 0 to 10 where 0 is no effect and 10 is complete control
# [27] = Preemergence, Rate 500 g/ha, scale of 0 to 10 where 0 is no effect and 10 is complete control
# [28] = Rate 62 g/ha, flood test species, Pre-emergence, visual evaluation after twelve to sixteen days
# [29] = Rate 125 g/ha, under heading Pre-emergence, flood test species, visual evaluation after twelve to sixteen days
# [30] = Rate 250 g/ha, Pre-emergence (flood test species), scale 0 to 10, 0 is no effect, 10 is complete control
# [31] = Rate 500 g/ha, Pre-emergence section of Table B, 0 to 10 scale (0 no effect, 10 complete control)
smiles,measurement,setting,value
CC(C)N(C(=O)n1oc(=O)n(CC(C)[N+](=O)[O-])c1=O)c1ccccc1 (stereo not drawn) [Compound 604],"Plant response rating, Blackgrass",[1]; [21],0
same,"Plant response rating, Blackgrass",[1]; [22],0
same,Blackgrass plant response rating,[1]; [23],0
same,"Plant response rating, Blackgrass",[1]; [24],0
same,Blackgrass plant response rating,[1]; [25],0
same,Blackgrass plant response rating,[1]; [26],0
same,Blackgrass plant response rating (0 to 10 scale),"[1]; Preemergence, Rate 250 g/ha",0
same,Blackgrass plant response rating,[1]; [27],0
same,"Plant response rating, Giant foxtail",[2]; [21],1
same,"Plant response rating, Giant foxtail",[2]; [22],2
same,Giant foxtail plant response rating,[2]; [23],3
same,"Plant response rating, Giant foxtail",[2]; [24],4
same,Giant foxtail plant response rating,[2]; [25],0
same,Giant foxtail plant response rating,[2]; [26],2
same,"Plant response rating, Giant foxtail",[2]; [27],7
same,"Plant response rating, Nutsedge",[3]; [21],0
same,"Plant response rating, Nutsedge",[3]; [22],0
same,Nutsedge plant response rating,[3]; [23],0
same,"Plant response rating, Nutsedge",[3]; [24],0
same,Nutsedge plant response rating,[3]; [25],0
same,Nutsedge plant response rating,[3]; [26],0
same,"Plant response rating, Nutsedge",[3]; [27],0
same,"Plant response rating, Wild oats",[4]; [21],0
same,"Plant response rating, Wild oats",[4]; [22],0
same,Wild oats plant response rating,[4]; [23],0
same,"Plant response rating, Wild oats",[4]; [24],0
same,Wild oats plant response rating,[4]; [25],0
same,Wild oats plant response rating,[4]; [26],0
same,"Plant response rating, Wild oats",[4]; [27],0
same,"Plant response rating, Crabgrass",[5]; [21],1
same,Crabgrass plant response rating,[5]; [23],3
same,"Plant response rating, Crabgrass",[5]; [24],3
same,Crabgrass plant response rating,[5]; [25],0
same,Crabgrass plant response rating,[5]; [26],0
same,"Plant response rating, Crabgrass",[5]; [27],1
same,"Plant response rating, Velvetleaf",[6]; [21],0
same,"Plant response rating, Velvetleaf",[6]; [22],0
same,Velvetleaf plant response rating,[6]; [23],0
same,"Plant response rating, Velvetleaf",[6]; [24],0
same,Velvetleaf plant response rating,[6]; [25],0
same,Velvetleaf plant response rating,[6]; [26],0
same,"Plant response rating, Velvetleaf",[6]; [27],0
same,"Plant response rating, Sugarbeets",[7]; [21],0
same,"Plant response rating, Sugarbeets",[7]; [22],0
same,Sugarbeets plant response rating,[7]; [23],0
same,"Plant response rating, Sugarbeets",[7]; [24],0
same,Sugarbeets plant response rating,[7]; [25],0
same,Sugarbeets plant response rating,[7]; [26],0
same,"Plant response rating, Sugarbeets",[7]; [27],0
same,"Plant response rating, B. signalgrass",[8]; [21],0
same,"Plant response rating, B. signalgrass",[8]; [22],0
same,B. signalgrass plant response rating,[8]; [23],0
same,"Plant response rating, B. signalgrass",[8]; [24],0
same,B. signalgrass plant response rating,[8]; [25],0
same,B. signalgrass plant response rating,[8]; [26],0
same,"B. signalgrass plant response rating (0 to 10 scale, 0 is no effect, 10 is complete control)","[8]; Preemergence, Rate 250 g/ha",0
same,B. signalgrass plant response rating,[8]; [27],0
same,"Plant response rating, Wheat",[9]; [21],0
same,"Plant response rating, Wheat",[9]; [22],0
same,Wheat plant response rating,[9]; [23],0
same,"Plant response rating, Wheat",[9]; [24],0
same,Wheat plant response rating,[9]; [25],0
same,Wheat plant response rating,[9]; [26],0
same,"Plant response rating, Wheat",[9]; [27],0
same,"Plant response rating, Rape",[10]; [21],0
same,"Plant response rating, Rape",[10]; [22],0
same,Rape plant response rating,[10]; [23],0
same,"Plant response rating, Rape",[10]; [24],0
same,Rape plant response rating,[10]; [25],0
same,Rape plant response rating,[10]; [26],0
same,"Plant response rating, Rape",[10]; [27],0
same,"Plant response rating, Ducksalad (0 to 10 scale, 0 is no effect, 10 is complete control)",[11]; [28],0
same,"Ducksalad plant response rating (0 to 10 scale, 0 is no effect, 10 is complete control)",[11]; [29],0
same,Ducksalad plant response rating,[11]; [30],0
same,Ducksalad plant response rating,[11]; [31],0
same,"Plant response rating, Barnyardgrass (0 to 10 scale, 0 is no effect, 10 is complete control)",[12]; [28],0
same,"Barnyardgrass plant response rating (0 to 10 scale, 0 is no effect, 10 is complete control)",[12]; [29],0
same,Barnyardgrass plant response rating,[12]; [30],0
same,Barnyardgrass plant response rating,[12]; [31],0
same,"Plant response rating, S. Flatsedge (0 to 10 scale, 0 is no effect, 10 is complete control)",[13]; [28],0
same,"S. Flatsedge plant response rating (0 to 10 scale, 0 is no effect, 10 is complete control)",[13]; [29],0
same,S. Flatsedge plant response rating,[13]; [30],0
same,S. Flatsedge plant response rating,[13]; [31],0
same,"Plant response rating, Corn",[14]; [21],0
same,"Plant response rating, Corn",[14]; [22],0
same,Corn plant response rating,[14]; [23],0
same,"Plant response rating, Corn",[14]; [24],0
same,Corn plant response rating,[14]; [25],0
same,Corn plant response rating,[14]; [26],0
same,Corn plant response rating (0 to 10 scale),"[14]; Preemergence, Rate 250 g/ha",0
same,"Plant response rating, Corn",[14]; [27],0
same,"Plant response rating, Soybean",[15]; [21],0
same,"Plant response rating, Soybean",[15]; [22],1
same,Soybean plant response rating,[15]; [23],1
same,"Plant response rating, Soybean",[15]; [24],1
same,Soybean plant response rating,[15]; [25],0
same,Soybean plant response rating,[15]; [26],0
same,"Plant response rating, Soybean",[15]; [27],0
same,"Plant response rating, Redroot pigweed",[16]; [21],0
same,"Plant response rating, Redroot pigweed",[16]; [22],0
same,Redroot pigweed plant response rating,[16]; [23],0
same,"Plant response rating, Redroot pigweed",[16]; [24],0
same,Redroot pigweed plant response rating,[16]; [25],0
same,Redroot pigweed plant response rating,[16]; [26],0
same,"Plant response rating, Redroot pigweed",[16]; [27],0
same,"Plant response rating, Morningglory",[17]; [21],0
same,"Plant response rating, Morningglory",[17]; [22],1
same,Morningglory plant response rating,[17]; [23],2
same,"Plant response rating, Morningglory",[17]; [24],2
same,Morningglory plant response rating,[17]; [25],0
same,Morningglory plant response rating,[17]; [26],0
same,"Plant response rating, Morningglory",[17]; [27],0
same,"Plant response rating, Cocklebur",[18]; [21],0
same,"Plant response rating, Cocklebur",[18]; [22],0
same,Cocklebur plant response rating,[18]; [23],0
same,"Plant response rating, Cocklebur",[18]; [24],0
same,Cocklebur plant response rating,[18]; [25],0
same,Cocklebur plant response rating,[18]; [26],0
same,Cocklebur plant response rating (0 to 10 scale),"[18]; Preemergence, Rate 250 g/ha",0
same,"Plant response rating, Cocklebur",[18]; [27],0
same,"Plant response rating, Rice (0 to 10 scale, 0 is no effect, 10 is complete control)",[19]; [28],0
same,"Rice plant response rating (0 to 10 scale, 0 is no effect, 10 is complete control)",[19]; [29],0
same,Rice plant response rating,[19]; [30],0
same,Rice plant response rating,[19]; [31],0
same,Bedstraw plant response rating (0 to 10 scale),[20]; Rate 250 g/ha,0
same,Bedstraw plant response rating,"[20]; Rate 500 g/ha, scale of 0 to 10 where 0 is no effect and 10 is complete control",0
